The record followed here is ChEMBL document CHEMBL1142251, “Identification of novel inhibitors of bacterial surface enzyme Staphylococcus aureus Sortase A” (Bioorg Med Chem Lett, 2008).

The target in this experiment is T1, Sortase A (Staphylococcus aureus, UniProt Q9S446).
T1 sequence (Q9S446 whole entry): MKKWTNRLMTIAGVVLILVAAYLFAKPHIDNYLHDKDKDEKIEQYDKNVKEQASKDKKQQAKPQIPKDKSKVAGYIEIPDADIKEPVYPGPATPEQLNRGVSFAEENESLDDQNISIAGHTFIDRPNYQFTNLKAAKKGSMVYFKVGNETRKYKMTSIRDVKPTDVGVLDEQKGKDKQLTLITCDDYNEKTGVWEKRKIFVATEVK
The experiment can be described thus: Inhibition of Staphylococcus aures sortase A by FRET assay.
In general, IC50 refers to the concentration needed to halve the response being measured. Low values mean greater potency in that assay, high ones weaker potency in that assay. On to `O=C(O)/C=C/C(=O)Nc1ccc(NC(=O)c2ccccc2O)cc1`, for which the IC50 was 125 µM.

`O=Cc1cc(NC(=O)/C=C/c2ccco2)ccc1N1CCOCC1` showed an IC50 of 107 µM. In the case of `CS(=O)(=NC=C(C#N)C(=O)c1cccs1)c1ccc(Oc2ccc([N+](=O)[O-])cn2)cc1` (stereo not given) it was 400 µM; in that of `Nc1nccc(-c2ccc(NC(=O)Nc3ccc(Cl)cc3)cc2)n1`, 400 µM. With `N#Cc1c(SCC(=O)c2ccc([N+](=O)[O-])cc2)[n-][s+]c1SCC(=O)c1ccc([N+](=O)[O-])cc1` the figure was 97.3 µM. In the case of `O=C(/C=C/c1cccs1)Nc1ccc(N2CCOCC2)c(C(=O)O)c1` it was 75 µM.

The molecule `O=C(/C=C/c1cccs1)Nc1ccc(N2CCOCC2)c(CO)c1` registered an IC50 of 73 µM. With `COC(=O)c1cc(NC(=O)/C=C/c2cccs2)ccc1N1CCOCC1` the figure was 71 µM; with `Cc1ccc(S(=O)(=O)NC(=O)Nc2ccc(NC(=O)c3ccccc3O)cc2)cc1`, 226 µM. With `O=C(/C=C/c1ccco1)Nc1ccc(N2CCOCC2)c(CO)c1` the figure was 111 µM; with `CS(=O)(=NC=C(C#N)C(=O)c1ccco1)c1ccc(Oc2ccc([N+](=O)[O-])cn2)cc1` (stereo not given), 150 µM. In the case of `NC(=O)c1cc(NC(=O)/C=C/c2cccs2)ccc1N1CCOCC1` it was 105 µM; in that of `COC(=O)c1cc(NC(=O)CCc2cccs2)ccc1N1CCOCC1`, more than 600 µM; in that of `O=Cc1cc(NC(=O)/C=C/c2cccs2)ccc1N1CCOCC1`, 77 µM. `O=C(CCc1ccco1)Nc1ccc(N2CCOCC2)c(C(=O)O)c1` came in with an IC50 of more than 600 µM. With `N=C(N)N/N=C/c1ccc(/C=N/NC(=N)N)cc1` the figure was 275 µM; with `COC(=O)c1cc(NC(=O)CCc2ccco2)ccc1N1CCOCC1`, more than 600 µM. Turning to `COC(=O)c1cc(NC(=O)/C=C/c2ccco2)ccc1N1CCOCC1`, the IC50 was 58 µM. In the case of `O=C(/C=C/c1ccco1)Nc1ccc(N2CCOCC2)c(C(=O)O)c1` it was 181 µM.

`O=C(CCc1cccs1)Nc1ccc(N2CCOCC2)c(C(=O)O)c1` yielded an IC50 of more than 600 µM.
